From patent US10172921B2, “Method of treating an inflammatory bowel disease comprising agonists of orexin-1 receptor” (INSERM (INSTITUT NATIONAL DE LA SANTÉ ET DE LA RECHERCHE …, priority 2014, dated 2019)

Experiments:
DSS-induced colitis mice = experiment: DSS-induced colitis in mice: Disease Activity Index and colon histology; assay type: in vivo
Excerpt: FIG. 2: OXA ameliorates the DAI (weight and colitis score) of DSS-induced colitis mice. Mice were orally treated with 5% DSS for 7 days.
FIG. 5: OXA ameliorates the DAI (weight and colitis score) of DSS-induced colitis mice. Mice were orally treated with 5% DSS for 7 days in the presence or in the absence of daily intraperitoneal injection of OxA (0.22 μmoles/kg). DAI score including weight loss, severity of diarrhea, the presence of blood in the stool, inflammation and edema was estimated using a scale ranging from 0 (no symptoms) to 4 (severe colitis). DSS, dextran sulfate sodium; WT, wild type mice.
Based on these observations, we have investigated the effect of Orexin A (OxA) on acute inflammation in mice treated with Dextran Sulfate Sodium (DSS). OxA was preferentially chosen in these experiments since the presence of two disulphide bridges confers it more stability. DSS induces acute colitis characterized by weight loss, bloody diarrhea, intestinal ulcerations and infiltrations with granulocytes.
(§1) These observations are confirmed by histologic aspect of colon epithelium (histologic scoring by a GI pathologist). Thus, OxA has probably an anti-inflammatory effect on DSS-induced colitis. To confirm this hypothesis, we have investigated the anti-inflammatory effect of OxA treatment on cytokines secretion in colon extracts from DSS-treated mice. […] In contrast, OxA has no effect on INFγ, IL10, and IL12 cytokine secretion in colon extracts (FIG. 3).
As shown in FIG. 5 when DSS-induced colitis mice were treated with OxA, the DAI score was ameliorated (about of 1.5).

[1] = tested on: cytokines secretion in colon extracts from DSS-treated mice; experiment: Cytokine secretion in colon extracts of DSS-induced colitis mice; assay type: in vivo; conditions: FIG. 3
Excerpt: FIG. 3: OXA effects on cytokines secretion in DSS-induced colitis mice
as §1

EXCY2 mice = experiment: Spontaneous UC-like colitis in EXCY2 mice (IL10-/-; Nox1-/-): DAI, colon histology, stress pathways; assay type: in vivo; conditions: for severe colitis: 10 week-old EXCY2 mice, 2 IP/week during 3 weeks; for DAI score: OxA 0.22 μmoles/kg intraperitoneal or 5-ASA 0.053 g/kg oral, scale 0 (no symptoms) to 4 (severe colitis), untreated mice 4, FIG. 7
Excerpt: FIG. 4: Histological aspect of colon mucosa in OxA treated mice (right) and non-treated mice (left)
FIG. 7: OXA better improves the DAI (weight and colitis score) of EXCY2 mice that the gold standard 5-aminosalicylic acid (5-ASA) treatment. Mice were intraperitoneal injected or not with OxA (0.22 μmoles/kg) or orally treated with 5-ASA (0.053 g/kg). DAI score including the weight loss, severity of diarrhea, the presence of blood in the stool, inflammation and edema was estimated using a scale ranging from 0 (no symptoms) to 4 (severe colitis).
DSS mouse model has been extensively used to decipher the mucosal inflammation in IBD, UC pathogenesis, and preclinical studies. However, mice show differential susceptibilities and responsiveness to DSS-induced colitis depending on their genetic background, gender. DSS model is a faithful model of inflammation but departs from Ulcerative Colitis in part for lack of the inflammation gradient from the rectum to the proximal colon usually observed in UC, any deregulation of ER stress in goblet cells known to be an early etiological factor of UC, and no digestive or extra-digestive complications of UC such as cholangitis and colorectal cancer, respectively. The use of genetically modified mice model represents a good alternative to chemically-induced colitis mice model. The recent development of a new spontaneous UC-like mouse model (EXCY2 mice, WO/2012/140516) consisting of a double KO of IL10 and Nox1 (IL10^−/−; Nox1^−/−) is ideally suited to study the OxA effect on spontaneous colitis. Indeed, EXCY2 mice 1) develop a spontaneous colitis at 6/7 weeks of age with an upwards gradient from the rectum and reproduce all molecular characteristics seen in UC including, loss of goblet cells, deregulation of ER stress, protective effect of tobacco; 2) spontaneously colonic cancer at 8 months of age (35-40% of mice); 3) develop mild cholangitis.
(§2) In contrast, the secretion of anti-inflammatory cytokine IL10 was unchanged (FIG. 6).
The treatment of EXCY2 mice with 5-ASA reduced the DAI score as compared to untreated mice, i.e. 3 vs 4, respectively.

[2] = tested on: cytokines secretion in EXCY2 mice; experiment: Cytokine secretion in colons of EXCY2 mice (Cytokine CBA kits); assay type: in vivo; conditions: OxA 0.22 μmoles/kg, FIG. 6
Protocol: FIG. 6: OXA effects on cytokines secretion in EXCY2 mice. Colons of EXCY2 mice from untreated mice (white) and treated with OxA (0.22 μmoles/kg) treatment (black) were resected after animal sacrifice. Then, protein extraction was performed by tissue disruption. Cytokines were determined using Cytokine CBA kits (see Material and Methods).
as §2

Caco2 cells = experiment: Oxidative stress and ER stress pathways in Caco2 cells; assay type: cell-based
[3] = colon extracts of DSS-induced colitis mice
[4] = colon extracts of DSS-treated mice

“Orexin-A (XPLPDCCRQKTCSCRLYELLHGAGNHAAGILTLX; not fully specified; two disulphide bridges; MOD_RES (1)..(1) PYRROLIDONE CARBOXYLIC ACID; (34)..(34) Xaa can be any naturally occurring amino acid; listed as Homo sapiens) [OxA]” was tested, and the DAI score (DSS-induced colitis mice; 5% DSS orally 7 days, daily intraperitoneal OxA 0.22 μmoles/kg, scale 0 (no symptoms) to 4 (severe colitis), FIG. 5, printed as 'ameliorated (about of 1.5)') was about 1.5, the “histologic aspect of colon epithelium” value (DSS-induced colitis mice; DSS-treated mice, histologic scoring by a GI pathologist) was “ameliorates” and the “Disease Activity Index (DAI) scored by measuring weight, length of colon, diarrhea and the presence of blood in the stool” value (DSS-induced colitis mice; orally DSS-treated mice (5% DSS for 7 days), FIG. 2) was “ameliorates”. For the same molecule, the IL1B secretion [1, 3] was “reduces”, the IL6 secretion [1, 3] was “reduces” and the IL8 homolog secretion [1, 3] was “reduces”. The TNFα secretion [1, 3] was “reduces”, the IL10 cytokine secretion [1, 4] was “no effect” and the IL12 cytokine secretion [1, 4] was “no effect”. The INFγ cytokine secretion [1, 4] was “no effect”, the severe colitis (EXCY2 mice; 0.22 μmoles/kg OxA) was “alleviated” and the severe colitis (EXCY2 mice; 1 μM OxA) was “alleviated”. The “deregulated pathways involved in the onset of colitis (oxidative stress and ER stress)” value (EXCY2 mice; EXCY2 mice) was “induced”, the DAI score (EXCY2 mice; EXCY2 mice) was 1.5 and the “colonic mucosa (general crypts aspect, crypt size, presence of goblet cells, absence of immune cells infiltration)” value (EXCY2 mice; OxA-treated vs vehicle treated EXCY2 mice, FIG. 4) was “normal colonic mucosa”. The IFNγ secretion [2] was “strong reduction”, the IL6 secretion [2] was “strong reduction” and the IL10 secretion [2] was “unchanged”. For the same molecule, the IL12 secretion [2] was “strong reduction”, the MCP1 secretion [2] was “strong reduction” and the TNFα secretion [2] was “strong reduction”. The “deregulated pathways involved in the onset of colitis (oxidative stress and ER stress)” value (Caco2 cells) was “induced”.
Nc1ccc(O)c(C(=O)O)c1 [5-ASA, 5-aminosalicylic acid, reference compound] gave a DAI score (EXCY2 mice; EXCY2 mice) of 3.
